One test addresses human JAK1 kinase domain (Homo sapiens (Human), UniProt P23458). In words: JAK1 Inhibition Assay Protocol (Caliper LabChip peptide phosphorylation). Particulars: enzymatic activity, 25 uM ATP. It counts as biochemical. The text has this: (§1) The catalytically active kinase domain of human JAK1, JAK2, JAK3 or TYK2 was purified from extracts of SF9 insect cells infected with a recombinant baculovirus expression vector encoding the human JAK1, JAK2, JAK3 or TYK2 kinase domains (JAK1 amino acid residues N852-D1154 according to the numbering of GenBank sequence accession number P23458, JAK2 amino acid residues D812-G1132 according to the numbering of GenBank sequence accession number NP_004963.1; JAK3 amino acid residues S783-S1124 according to the numbering of GenBank sequence accession number P52333, and TYK2 amino acid residues N873-C1187 according to the numbering of GenBank sequence accession number P29597). The activity of the JAK1, JAK2, JAK3 or TYK2 kinase domains can be measured by a number of direct and indirect methods, including quantification of phosphorylation of peptide substrates derived from the human JAK3 protein (Saltzman et al., Biochem. Biophys. Res. Commun. 246:627-633 (2004)). The activity of the JAK1, JAK2, JAK3 or TYK2 kinase domains was measured in vitro by monitoring phosphorylation of JAK3 derived peptides using the Caliper LabChip technology.
(§2) The activity of the isolated JAK1 or TYK2 kinase domain was measured by monitoring phosphorylation of a peptide derived from JAK3 ([…] fluorescently labeled on the N-terminus with 5-carboxyfluorescein using the Caliper LabChip technology (Caliper Life Sciences, Hopkinton, Mass.). […] Reactions were incubated at 22° C. in 384-well polypropylene microtiter plates for 30 minutes and then stopped by addition of 25 uL of an EDTA containing solution (100 mM Hepes pH 7.2, 0.015% Brij-35, 150 mM EDTA), resulting in a final EDTA concentration of 50 mM. After termination of the kinase reaction, the proportion of phosphorylated product was determined as a fraction of total peptide substrate using the Caliper LabChip 3000 according to the manufacturer's specifications. Ki values were then determined using the Morrison tight binding model (Morrison, J. F., Biochim. Biophys. Acta. 185:269-296 (1969); William, J. W. and Morrison, J. F., Meth. Enzymol., 63:437-467 (1979)).

Test [1] concerns TF-1 cells. In words: IL-6-stimulated STAT3 phosphorylation in TF-1 cells (JAK1-dependent signaling, MSD). The format is cell-based. Particulars: Homo sapiens, read-out: IL6-pSTAT3 TF1 EC50. Here is the method:
(§3) The activities of compounds were determined in cell-based assays that are designed to measure JAK1 or JAK2-dependent signaling. Compounds were serially diluted in DMSO and incubated with TF-1 cells (American Type Culture Collection (ATCC); Manassas, Va.) in 384-well microtiter plates in OptiMEM medium without phenol red, 1% Charcoal/Dextran stripped FBS, 0.1 mM NEAA, 1 mM sodium pyruvate (Invitrogen Corp.; Carlsbad, Calif.) at a final cell density of 100,000 cells per well and a final DMSO concentration of 0.2%. Human recombinant IL-6 (R&D systems; Minneapolis, Minn.) or EPO (Invitrogen Corp.; Carlsbad, Calif.) was then added at a final concentration of 30 ng/mL or 10 Units/mL, respectively, to the microtiter plates containing the TF-1 cells and compound and the plates were incubated for 30 min at 37° C. Compound-mediated effects on STAT3 or STATS phosphorylation were then measured in the lysates of cells incubated in the presence of IL-6 or EPO, respectively, using the Meso Scale Discovery (MSD) technology (Gaithersburg, Md.) according to the manufacturer's protocol and EC50 values were determined.

Another test concerns the target human TYK2 kinase domain (Homo sapiens (Human), UniProt P29597). The experiment in a line: TYK2 Inhibition Assay Protocol (Caliper LabChip peptide phosphorylation). The format is biochemical. Particulars: enzymatic activity, 25 uM ATP; read-out: TYK2i Ki.
Description: as §1, §2

In test [2] the test system is TF-1 cells. The experiment in a line: EPO-stimulated STAT5 phosphorylation in TF-1 cells (JAK2-dependent signaling, MSD). It counts as cell-based. Particulars: Homo sapiens, read-out: EPO pSTAT5 TF1 EC50. Here is the method:
as §3

Test [3] deals with Set-2 cells, which express the JAK2V617F mutant protein. In words: STAT5 phosphorylation in Set-2 cells (JAK2-dependent signaling, MSD). Particulars: Homo sapiens, read-out: pSTAT5 SET2 EC50. It counts as cell-based. As to the method: The activities of compounds were determined in cell-based assays that are designed to measure JAK2-dependent signaling or proliferation. Compounds were serially diluted in DMSO and incubated with Set-2 cells (German Collection of Microorganisms and Cell Cultures (DSMZ); Braunschweig, Germany), which express the JAK2V617F mutant protein, in 96-well microtiter plates for 1 hr at 37° C. in RPMI medium at a final cell density of 100,000 cells per well and a final DMSO concentration of 0.57%. Compound-mediated effects on STATS phosphorylation were then measured in the lysates of incubated cells using the Meso Scale Discovery (MSD) technology (Gaithersburg, Md.) according to the manufacturer's protocol and EC50 values were determined. Alternatively, serially diluted compounds were added to 384-well microtiter plates in RPMI medium with 10% fetal bovine serum (Invitrogen Corp.; Carlsbad, Calif.) at a final cell density of 2500 cells per well and a final DMSO concentration of 0.3% and incubated at 37° C. for 72 hours. Cell viability was then determined using the CellTiter-Glo® Luminescent Cell Viability Assay according to the manufacturer's protocol (Promega; Madison, Wis.) and EC50 values were determined.

[4] abbreviates: 0.5 h, TF-1 cells, IL-6 30 ng/mL, 30 min.
The mark [5] stands for this setting: 0.5 h, TF-1 cells, EPO 10 Units/mL, 30 min.

Like-named read-outs stand apart in the source and are kept apart here.

Sequence of human TYK2 kinase domain (P29597 873-1187): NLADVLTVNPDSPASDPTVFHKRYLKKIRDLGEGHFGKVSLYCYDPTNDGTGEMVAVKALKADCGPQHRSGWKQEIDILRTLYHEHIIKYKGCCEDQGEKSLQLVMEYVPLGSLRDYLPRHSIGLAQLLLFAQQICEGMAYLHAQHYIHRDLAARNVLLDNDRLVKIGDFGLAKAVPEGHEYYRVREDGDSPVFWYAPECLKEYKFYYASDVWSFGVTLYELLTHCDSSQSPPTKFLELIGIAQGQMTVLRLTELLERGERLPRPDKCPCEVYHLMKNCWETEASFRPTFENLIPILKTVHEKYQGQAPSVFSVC
Sequence of human JAK1 kinase domain (P23458 852-1154): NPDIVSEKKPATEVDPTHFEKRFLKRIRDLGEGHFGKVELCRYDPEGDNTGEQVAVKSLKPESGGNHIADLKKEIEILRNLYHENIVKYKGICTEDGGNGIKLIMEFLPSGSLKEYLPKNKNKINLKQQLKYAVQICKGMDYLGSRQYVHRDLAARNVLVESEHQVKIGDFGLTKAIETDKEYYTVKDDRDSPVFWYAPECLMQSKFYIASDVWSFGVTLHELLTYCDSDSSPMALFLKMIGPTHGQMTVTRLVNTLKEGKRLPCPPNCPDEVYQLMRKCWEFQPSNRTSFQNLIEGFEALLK

Turning to `Cc1cc(NC(=O)c2cnn3ccc(N)nc23)n(-c2cc(Cl)ccc2C)n1` [Example 226], the figures for the Ki at human JAK1 kinase domain and on human TYK2 kinase domain were 7.4 nM and 32.8 nM, respectively. The EC50 was 170 nM in the test with TF-1 cells [1] (setting [4]); 103 nM in the test on TF-1 cells [2] (setting [5]); 17 nM in test [3] (Set-2 cells, 1 hr incubation).

As for `Nc1ccn2ncc(C(=O)Nc3ccnn3-c3cc(Cl)ccc3Cl)c2n1` [Example 277, 5-Amino-pyrazolo[1,5-a]-pyrimidine-3-carboxylic acid [2-(2,5-dichloro-phenyl)-2H-pyrazol-3-yl]-amide], the Ki at human JAK1 kinase domain stood at 17.6 nM; on human TYK2 kinase domain, 43.5 nM. Further, the concentration giving a half-maximal response (EC50) is 514 nM in the test on TF-1 cells [1] (setting [4]); 148 nM in the test with TF-1 cells [2] (setting [5]); 43.4 nM in test [3] (Set-2 cells, 1 hr incubation).

As for `Cc1cc(NC(=O)c2cnn3ccc(Nc4cccc(C(F)(F)F)c4)nc23)on1` [Example 240, 5-(3-Trifluoromethyl-phenylamino)-pyrazolo-[1,5-a]pyrimidine-3-carboxylic acid (3-methyl-isoxazol-5-yl)-amide], the figures for the Ki on human JAK1 kinase domain and at human TYK2 kinase domain were 36 nM and 62.4 nM, respectively. Further, the EC50 was 1600 nM in the test with TF-1 cells [1] (setting [4]); 735 nM with TF-1 cells [2] (setting [5]); 365 nM in test [3] (Set-2 cells, 1 hr incubation).

Take `Cc1cc(NC(=O)c2cnn3ccc(N)nc23)n(-c2ccccc2C)n1` [Example 343, 5-Amino-pyrazolo[1,5-a]-pyrimidine-3-carboxylic acid (5-methyl-2-o-tolyl-2H-pyrazol-3-yl)-amide]: the Ki on human JAK1 kinase domain was found to be 29.9 nM; at human TYK2 kinase domain, 97.6 nM. Further, the EC50 was 380 nM in the test on TF-1 cells [1] (setting [4]); 368 nM in the test with TF-1 cells [2] (setting [5]); 301 nM in test [3] (Set-2 cells, 1 hr incubation).

Regarding `Nc1ccn2ncc(C(=O)Nc3c[nH]nc3-c3cc(Cl)ccc3Cl)c2n1` [Example 248, 5-Amino-pyrazolo[1,5-a]-pyrimidine-3-carboxylic acid [3-(2,5-dichloro-phenyl)-1H-pyrazol-4-yl]-amide], the figures for the Ki at human JAK1 kinase domain and at human TYK2 kinase domain were 2.8 nM and 4.1 nM, respectively. Moreover, the 50% effective concentration (EC50) with TF-1 cells [1] (setting [4]) was found to be 165 nM; with TF-1 cells [2] (setting [5]) it was 55.3 nM; in test [3] (Set-2 cells, 1 hr incubation), 18 nM.

For the compound `O=C(NC1CCOCC1)c1cnn2ccc(NC3Cc4ccccc4C3)nc12` [Example 297, 5-(Indan-2-ylamino)-pyrazolo[1,5-a]pyrimidine-3-carboxylic acid (tetrahydro-pyran-4-yl)-amide], the Ki at human JAK1 kinase domain was found to be 46.6 nM; on human TYK2 kinase domain it was 152 nM. For the same compound, the concentration giving a half-maximal response (EC50) was 1400 nM in the test with TF-1 cells [1] (setting [4]); 207 nM in the test on TF-1 cells [2] (setting [5]); 170 nM in test [3] (Set-2 cells, 1 hr incubation).

For `Cc1nc(-c2ccccc2C)c(NC(=O)c2cnn3ccc(N)nc23)s1` [Example 231, 5-amino-pyrazolo[1,5-a]pyrimidine-3-carboxylic acid (2-methyl-4-o-tolyl-thiazol-5-yl)-amide], the Ki is 15.2 nM on human JAK1 kinase domain and 43.8 nM at human TYK2 kinase domain. The concentration for a half-maximal effect (EC50) was determined as 371 nM with TF-1 cells [1] (TF-1, 0.5 h); 230 nM with TF-1 cells [2] (TF-1, 0.5 h); 80.2 nM in test [3] (SET-2, 1 h).

In the case of `O=C(N[C@H]1CC[C@H](O)CC1)c1cnn2ccc(NC3CCc4ccccc43)nc12` (stereo partly shown) [Example 299, 5-(Indan-1-ylamino)-pyrazolo[1,5-a]pyrimidine-3-carboxylic acid (4-hydroxy-cyclohexyl)-amide], the Ki on human JAK1 kinase domain came to 28.7 nM; at human TYK2 kinase domain, 50.9 nM. Besides, the concentration giving a half-maximal response (EC50) in the test on TF-1 cells [1] (setting [4]) is 1880 nM; in the test on TF-1 cells [2] (setting [5]) it was 228 nM; in test [3] (Set-2 cells, 1 hr incubation) it was 256 nM.

Usually Ki stands for the equilibrium dissociation constant of an inhibitor or competing ligand from its target. As a reminder, the EC50 is the midpoint of the concentration-response curve.

The record behind these values is US8637526B2, “Pyrazolopyrimidine JAK inhibitor compounds and methods” (Genentech, Inc., priority 2008, dated 2014).
